In one data set the test system is male ferrets. It is filed as in vivo. How it is done:
1. Effect of subcutaneously administered GIP receptor agonist peptide in morphine-induced acute emetic model.
To evaluate the antiemetic effect, the GIP receptor agonist peptides other than natural human GIP are subcutaneously administered into male ferrets 24 hrs before morphine administration. Up to 60 minutes after morphine administration, the condition of the ferrets is monitored to record the frequencies and time points of abdominal contraction motions, vomiting behaviors, licking with the tongue, and fidgety behavior occurring. GIP receptor agonist peptide compounds of the present disclosure dosed at 0.3-10 nmol/kg attenuated the morphine (0.6 mg/kg, s.c.)-induced emesis in the ferrets.
GIP receptor agonist peptides are dissolved with a vehicle (0.09 w/v % tween 80/10% DMSO/saline), respectively, to prepare test solutions. […] of the test solutions and the vehicle are subcutaneously administered to ferrets (4 in each group), respectively. At the time of each of 4 or 24 hours after administration, 0.6 mg/kg of morphine is subcutaneously administered.

A short description of the next data set: physchem. Summed up:
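Solubility at pH 7.4 determined by stepwise addition of 200 mM phosphate buffer in 100 μL increments to 3 mg peptide, mixing briefly each time, until no insoluble material remained, then measured by liquid chromatography.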

Another data set deals with T1, human GLP-1R (Homo sapiens, UniProt P43220).
T1 construct: HEK-293T cells overexpressing full-length human GLP-1R; FLAG (N); host or cells: HEK-293T
Nature of the data set: Human GLP1R agonist activity, intracellular cAMP accumulation. It is filed as cell-based. Particulars: HEK-293T cells overexpressing human GLP-1R, 1 hr, read-out: Human GLP1R cAMP EC50, HEK293T. Summed up: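 cAMP accumulation is measured by HTRF after a 1 hr, room-temperature, dark exposure of thawed cells (4×10^5 cells/mL in Krebs Ringer buffer) to compound. Activity is scaled between DMSO alone as 0% and 1 nm GLP-1 as 100%.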

The test system of a further data set is C57BL/6J mice. Nature of the data set: Oral glucose tolerance test (OGTT). It is filed as in vivo. Particulars: 3 nmol/kg s.c., 24 hours before glucose loading. The method in brief: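 Peptide or vehicle given s.c. at 0.1, 0.3, 3 or 10 nmol/kg (peptide-dependent), 24 h before oral 50% dextrose at 5 ml/kg unless stated otherwise. Blood glucose read at 0, 15, 30 and 60 min. % inhibition = (1−(AUC cpd−AUC naïve)/(AUC veh−AUC naïve))×100.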

Data set [1] can be described thus: Pharmacokinetics in dog after IV and SC dosing. Particulars: in vivo; for half-life: IV 3 nmol/kg, read-out: IV T½ (converted); for MRT last: SC 3 nmol/kg, read-out: SC MRT 0-last. Summed up:
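Dogs were dosed IV or SC at 1 mL/kg with peptide at 3 nmol/mL in 10% DMSO/0.09% Polysorbate/PBS pH 7.4. K2-EDTA plasma was sampled to 336 h, and peptide was quantified by LCMS to derive half-life.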

Data set [2] in a line: Dog plasma protein binding (PPB). The following applies: pH 7.4; fraction unbound; dog serum; read-out: Dog PPB (FUplasma). It is filed as in vitro ADME. The method in brief: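 Fraction unbound (Fu,plasma) is given as a percentage. It was measured with the method and analysis of the human protein-binding protocol, but using dog serum in place of human serum.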
The nature of data set [3]: Human plasma protein binding (PPB). It is filed as in vitro ADME. The following applies: for fraction unbound: both sexes, pH 7.4, human plasma, 1000 nmol/L peptide, ultracentrifugation, read-out: Human PPB (FUplasma); for free unbound peptide in human plasma (in words): judged for once per week (QW) dosing. The method in brief:
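Peptides spiked at 1000 nmol/L into pooled human K2-EDTA plasma adjusted to pH 7.4, incubated 30 min at 37 °C, then ultracentrifuged at ~450,000 g, 4 °C for 3 h. Fu derived from LC-MS/MS (MRM) peak area ratios, supernatant versus plasma.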

Another data set concerns female beagle dogs. Nature of the data set: PYY-1119-induced vomiting in dogs. Particulars: 3 nmol/kg s.c., 72 hours post-dose (lower line). It is filed as in vivo. How it is done:
The GIPR agonist peptide compounds of the present disclosure or vehicle (0.09% [w/v] Tween 80/10% DMSO/PBS) were administered subcutaneously (sc) at 3-10 nmol/kg to female beagle dogs (10 months old), followed by sc injections with Y2R agonist ((4-imidazolecarbonyl-Ser-D-Hyp-Iva-Pya(4)-Cha-Leu(Me)-Asn-Lys-Aib-Thr-Arg-Gln-Arg-Cha-NH2), […]), […]) at 1 hour or specified hours in the table postdose. Emetic episodes were counted for 2 hours after administration (by blinded analysis).

Consider three compounds from US20230143604A1, “QW DOSING OF GIP RECEPTOR AGONIST PEPTIDE COMPOUNDS AND USES THEREOF” (TAKEDA PHARMACEUTICAL COMPANY LIMITED, priority 2020, published 2023).

Where two headings read alike, the source gives them in different places. Starred links: 1 amine or outer side, 2 acyl side, 3 side chain; linkers in the order of their positions; H or OH if unused. Non-standard residues stand in square brackets, D forms with d. Residues, ends and D or L forms follow the SMILES beside them. Groups on a side chain read outwards from the residue. *: point of attachment. C18 diacid = O=C(O)CCCCCCCCCCCCCCCCC(=O)*; γGlu = O=C(O)[C@H](CCC(=O)[*:2])N[*:1]; NMeY = CN[C@@H](Cc1ccc(O)cc1)C(=O)O; AEEA = NCCOCCOCC(=O)O; Aib = CC(C)(N)C(=O)O A value given as a limit tells only on which side of the number the result lay.

As a reminder, the solubility is the concentration that dissolves in the medium under given conditions. Low readings indicate a poorly soluble substance, high ones a readily soluble substance. As a reminder, the EC50 is the concentration at which the effect is half-maximal. In general, MRT last refers to the average time that molecules of a dose stay in the body.

T1 sequence (P43220 24-463): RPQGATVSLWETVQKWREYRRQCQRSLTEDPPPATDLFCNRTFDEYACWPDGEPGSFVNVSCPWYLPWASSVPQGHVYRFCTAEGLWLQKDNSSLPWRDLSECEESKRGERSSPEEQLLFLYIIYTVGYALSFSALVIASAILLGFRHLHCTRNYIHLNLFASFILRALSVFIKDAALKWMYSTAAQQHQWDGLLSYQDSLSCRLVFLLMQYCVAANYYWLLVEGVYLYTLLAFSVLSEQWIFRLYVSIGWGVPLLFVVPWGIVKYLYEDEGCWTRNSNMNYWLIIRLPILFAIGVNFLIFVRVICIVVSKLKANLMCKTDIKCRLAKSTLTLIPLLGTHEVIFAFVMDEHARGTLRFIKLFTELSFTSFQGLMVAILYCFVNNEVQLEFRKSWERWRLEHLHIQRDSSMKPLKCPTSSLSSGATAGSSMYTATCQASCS

For the compound `CC[C@H](C)[C@H](NC(=O)[C@H](CO)NC(=O)[C@H](Cc1ccc(O)cc1)NC(=O)[C@H](CC(=O)O)NC(=O)[C@H](CO)NC(=O)[C@@H](NC(=O)[C@H](Cc1ccccc1)NC(=O)[C@@H](NC(=O)CNC(=O)[C@H](CCC(=O)O)NC(=O)C(C)(C)NC(=O)[C@H](Cc1ccc(O)cc1)NC)[C@@H](C)O)[C@@H](C)CC)C(=O)N[C@@H](C)C(=O)N[C@@H](CCCCNC(=O)CNC(=O)CNC(=O)CNC(=O)CNC(=O)CNC(=O)CCCCCCCCCCCCCCCCC(=O)O)C(=O)N[C@@H](CC(=O)O)C(=O)N[C@@H](CCCNC(=N)N)C(=O)NC(C)(C)C(=O)N[C@@H](C)C(=O)N[C@@H](CCC(N)=O)C(=O)NC(C)(C)C(=O)N[C@@H](CC(=O)O)C(=O)N[C@@H](Cc1ccccc1)C(=O)N[C@H](C(=O)N[C@@H](CC(N)=O)C(=O)N[C@@H](Cc1c[nH]c2ccccc12)C(=O)N[C@@H](CC(C)C)C(=O)N[C@@H](CC(C)C)C(=O)N[C@@H](C)C(=O)N[C@@H](CCC(N)=O)C(=O)N[C@@H](CO)C(=O)N1CCC[C@H]1C(=O)NCC(=O)O)C(C)C` [Compound 84, Me-Y-Aib-E-G-T-F-I-S-D-Y-S-I-A-Km-D-R-Aib-A-Q-Aib-D-F-V-N-W-L-L-A-Q-S-P-G-OH], the “% inhibition of emetic events at doses (nmol/kg) and timepoints shown in ferret morphine model” value in the data set on male ferrets (24 hrs, 1 nmol/kg s.c.) was 24 hrs: 65% (1 nmol/kg);. The “effect on morphine-induced emesis in ferrets (in words)” value in the data set with male ferrets (morphine 0.6 mg/kg s.c., peptides dosed at 0.3-10 nmol/kg s.c.) is on record as “effective in completely inhibiting the frequency of emesis”. This compound yielded a solubility in the data set “physchem” (pH 7.4) of at least 15 mg/mL. In the data set “physchem” (pH 7.4, aqueous buffer), this compound returned a solubility of at least 60 mg/mL. Also, the EC50 on human GLP-1R worked out at 58.9 nM. Besides, the “Oral Glucose Tolerance Test Percent decrease in blood glucose AUC (%) over 60 mins” value in the data set on C57BL/6J mice is 72% (3 nmol/kg). For the same compound, in data set [1], the half-life is 62 h and the MRT last came to 82 h. The fraction unbound in data set [2] was 0.0003. Moreover, in data set [3], the fraction unbound worked out at 0.0009 and the “free unbound peptide in human plasma (in words)” value is “optimum free unbound peptide”.
Consider `CC[C@H](C)[C@H](NC(=O)[C@H](Cc1ccccc1)NC(=O)[C@@H](NC(=O)CNC(=O)[C@H](CCC(=O)O)NC(=O)C(C)(C)NC(=O)[C@H](Cc1ccc(O)cc1)NC)[C@@H](C)O)C(=O)N[C@@H](CO)C(=O)N[C@@H](CC(=O)O)C(=O)N[C@@H](Cc1ccc(O)cc1)C(=O)N[C@@H](CO)C(=O)N[C@H](C(=O)NC(C)(C)C(=O)N[C@@H](CC(C)C)C(=O)N[C@@H](CC(=O)O)C(=O)N[C@@H](CCCNC(=N)N)C(=O)NC(C)(C)C(=O)N[C@@H](C)C(=O)N[C@@H](CCC(N)=O)C(=O)NC(C)(C)C(=O)N[C@@H](CCCCNC(=O)COCCOCCNC(=O)COCCOCCNC(=O)CC[C@H](NC(=O)CC[C@H](NC(=O)CCCCCCCCCCCCCCCCC(=O)O)C(=O)O)C(=O)O)C(=O)N[C@@H](Cc1ccccc1)C(=O)N[C@H](C(=O)N[C@@H](CC(N)=O)C(=O)N[C@@H](Cc1c[nH]c2ccccc12)C(=O)N[C@@H](CC(C)C)C(=O)N[C@@H](CC(C)C)C(=O)N[C@@H](C)C(=O)N[C@@H](CCC(N)=O)C(=O)N[C@@H](CCCNC(=N)N)C(=O)NCC(=O)O)C(C)C)[C@@H](C)CC` [Compound 72, Me-Y-Aib-E-G-T-F-I-S-D-Y-S-I-Aib-L-D-R-Aib-A-Q-Aib-Km-F-V-N-W-L-L-A-Q-R-G-OH] (H-[NMeY][Aib]EGTFISDYSI[Aib]LDR[Aib]AQ[Aib]K([AEEA-AEEA-γGlu-γGlu-C18 diacid])FVNWLLAQRG-OH), for which the “% inhibition of emetic events at doses (nmol/kg) and timepoints shown in ferret morphine model” value in the data set on male ferrets (in vivo, sc, 24 h) is given as 100% (3 nmol/kg); 100%. In “physchem” (pH 7.4), this compound gave a solubility of at least 15 mg/mL. For the same compound, in “physchem” (pH 7.4, aqueous buffer), the solubility was at least 60 mg/mL. In data set [1], the half-life was 92 h and the MRT last was 125 h. The fraction unbound in data set [2] is 0.0062. Besides, in data set [3], the fraction unbound amounted to 0.0036 and the “free unbound peptide in human plasma (in words)” value is “optimum free unbound peptide”.
In the case of `CC[C@H](C)[C@H](NC(=O)[C@H](CCCNC(=N)N)NC(=O)[C@H](CC(=O)O)NC(=O)[C@H](CCCCNC(=O)CNC(=O)CNC(=O)CNC(=O)CNC(=O)CNC(=O)CCCCCCCCCCCCCCCCC(=O)O)NC(=O)[C@H](C)NC(=O)[C@@H](NC(=O)[C@H](CO)NC(=O)[C@H](Cc1ccc(O)cc1)NC(=O)[C@H](CC(=O)O)NC(=O)[C@H](CO)NC(=O)[C@@H](NC(=O)[C@H](Cc1ccccc1)NC(=O)[C@@H](NC(=O)CNC(=O)[C@H](CCC(=O)O)NC(=O)C(C)(C)NC(=O)[C@H](Cc1ccc(O)cc1)NC)[C@@H](C)O)[C@@H](C)CC)[C@@H](C)CC)C(=O)N[C@@H](C)C(=O)N[C@@H](CCC(N)=O)C(=O)N[C@@H](CCCNC(=N)N)C(=O)N[C@@H](CC(N)=O)C(=O)N[C@@H](Cc1ccccc1)C(=O)N[C@H](C(=O)N[C@@H](CCC(=O)O)C(=O)N[C@@H](Cc1c[nH]c2ccccc12)C(=O)N[C@@H](CC(C)C)C(=O)N[C@@H](CC(C)C)C(=O)N[C@@H](C)C(=O)N[C@@H](CCC(N)=O)C(=O)N[C@@H](CO)C(=O)N1CCC[C@H]1C(=O)N[C@@H](CO)C(=O)N[C@@H](CO)C(=O)NCC(=O)N[C@@H](C)C(=O)N1CCC[C@H]1C(=O)N1CCC[C@H]1C(=O)N1CCC[C@H]1C(=O)N[C@@H](CO)C(=O)O)C(C)C` [Compound 179], the solubility in the data set “physchem” (pH 7.4, aqueous buffer, pH 7.4 Phosphate Buffer - Solubility, 200 mM Phosphate buffer pH 7.4) is at least 30 mg/mL; in “physchem” (pH 7.4, solubility in phosphate buffer at pH 7.4, 200 mM phosphate buffer pH 7.4), at least 15 mg/mL. The “Inhibition (%) of PYY-1119-induced emetic event” value in the data set on female beagle dogs was 45% (3 nmol/kg). Besides, the “Oral Glucose Tolerance Test Percent decrease in blood glucose AUC (%) over 60 mins” value in the data set with C57BL/6J mice is reported as 58% (3 nmol/kg).
